According to publication PMC7248923, “A New Oleanane Type Saponin from the Aerial Parts of Nigella sativa with Anti-Oxidant and Anti-Diabetic Potential” (Molecules, 2020):

Legend:
[1] = DPPH radical scavenging assay; conditions: mean of three determinations ± SD; Nd = not detected; 30 min at 37 °C, 517 nm
Protocol: The DPPH activity of the isolated compounds and extracts were evaluated as described previously. Twenty μ L of samples having different concentrations of the extract (100, 500, 250, and 125 µg/mL) and isolated compounds (100, 75, 50, and 25 μ M) keeping the total volume of solution at 180 μL (0.1 mM) solution, was added in 96 well plates and incubated for 30 min at 37 °C. The observation was measured at 517nm. Each observation was done in triplicate. Ascorbic acid and Trolox were used as positive controls, while methanol was used as a negative control. Inhibition % was calculated. Data were presented as the mean ± S.D.

[2] = ABTS radical scavenging assay; conditions: mean of three determinations ± SD; Nd = not detected; 732 nm
Protocol: ABTS inhibition of the isolated compounds and extracts were evaluated as described previously. Stock solution was prepared by mixing an equal volume of 7.4 mM of ABTS and 2.6 mM of potassium persulfate and kept for 24 hours before diluting with methanol. Later the solution was diluted with methanol till the absorbance at 732 nm came within the range of 0.8–1.2. To 50 µL of sample solutions of different concentration (250, 125, 100, 50 μM ) 950 μL of ABTS* was added. Absorbance was measured at 732 nm by a spectrophotometer. Ascorbic acid and Trolox, and methanol were used as a positive and negative controls, respectively. All observations were done in triplicate. Percentage inhibition was calculated from the observations. Data were presented as mean ± S.D.

[3] = target: T1, human recombinant PTP1B (Homo sapiens, UniProt P18031); assay: PTP1B inhibitory assay (pNPP substrate); format: biochemical; conditions: mean of three determinations ± SD, Nd = not detected, pH 6, 37 °C
T1 construct: purchased Sigma-Aldrich
T1 sequence (P18031 1-435): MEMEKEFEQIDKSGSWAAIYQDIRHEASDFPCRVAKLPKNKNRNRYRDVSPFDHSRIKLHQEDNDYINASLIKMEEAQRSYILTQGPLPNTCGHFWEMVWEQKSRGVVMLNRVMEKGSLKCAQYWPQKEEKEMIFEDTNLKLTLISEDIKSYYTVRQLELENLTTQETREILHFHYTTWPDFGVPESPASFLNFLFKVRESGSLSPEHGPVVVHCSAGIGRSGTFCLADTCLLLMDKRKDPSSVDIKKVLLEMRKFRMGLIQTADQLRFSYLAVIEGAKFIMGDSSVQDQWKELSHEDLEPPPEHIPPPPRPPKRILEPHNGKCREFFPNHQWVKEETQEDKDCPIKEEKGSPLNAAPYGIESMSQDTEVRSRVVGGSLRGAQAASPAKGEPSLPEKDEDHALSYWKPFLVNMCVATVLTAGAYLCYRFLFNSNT
Protocol: The inhibitory activity of the isolated compounds against human recombinant PTP1B was evaluated using p-nitrophenyl phosphate (pNPP) as a substrate. Firstly, 2 mM pNPP and PTP1B were mixed with 50 mM citrate buffer of pH 6 and 0.1 mM NaCl, 1 mM EDTA, and 1 mM DTT with or without sample keeping the final volume of the solution at 110 μL and placing them in a 96 wells plate. […] The plate was first pre-incubated for 10 min at 37 °C, and then 50 μL of pNPP in buffer was added. The plate was again incubated for 30 min at 37 °C. After that, 10 μL of 10M NaOH was added dropwise to stop the reaction. […] The inhibition percentage was calculated with the formula [( Ac−As/Ac )] × 100%, where Ac is the absorbance of control while As is the absorbance of the sample. […] Data were presented as mean ± S.D [35].

An IC50 [1] of 35.5 ± 0.5 µM and an IC50 [2] of 98.8 ± 0.5 µM were found for `O=c1c(OC2OC(CO)C(O)C(O)C2OC2OC(CO)C(O)C(O)C2OC2OC(CO)C(O)C(O)C2O)c(-c2ccc(O)c(O)c2)oc2cc(O)cc(O)c12` (stereo not shown) [Compound 8, quercetin sphorotrioside] in this work.
An IC50 [1] of 198 ± 2.7 µM and an IC50 [2] of 247 ± 2.7 µM were found for `O=c1c(OC2OC(CO)C(O)C(O)C2O)c(-c2ccc(O)cc2)oc2cc(OC3OC(CO)C(O)C(O)C3O)cc(O)c12` (stereo not shown) [Compound 9, kaempferol-3,7-diglucoside] in this work.
An IC50 [1] of 59.4 ± 0.9 µM and an IC50 [2] of 96.2 ± 1.5 µM were found for `Cc1c(C)c2c(c(C)c1O)CCC(C)(C(=O)O)O2` (stereo not shown) [Trolox, reference compound] in this work.
An IC50 [1] of 51.7 ± 0.1 µM and an IC50 [2] of 82.9 ± 2 µM were found for `O=C1O[C@H]([C@@H](O)CO)C(O)=C1O` [Ascorbic acid, reference compound] in this work.
An IC50 [3] of 91.3 ± 2.5 µM was found for `CC1OC(OC2C(OC3CCC4(C)C(CCC5(C)C4CC=C4C6CC(C)(C)CCC6(C(=O)O)CCC45C)C3(C)CO)OCC(O)C2O)C(O)C(O)C1O` [Compound 12, 3-O-[α-L-rhamnopyranosyl-(1→2)-α-L-arabinopyranpsyl]hederagenin] in this work.
An IC50 [1] of 39.6 ± 0.5 µM and an IC50 [2] of 129 ± 0.5 µM were found for `C[C@@H]1O[C@@H](OC[C@H]2O[C@@H](Oc3c(-c4ccc(O)c(O)c4)oc4cc(O)cc(O)c4c3=O)[C@H](O)[C@@H](O)[C@@H]2O)[C@H](O)[C@H](O)[C@H]1O` [Compound 11, rutin] in this work.
An IC50 [1] of 71 ± 0.5 µM and an IC50 [2] of 139.2 ± 0.5 µM were found for `COc1ccc2c(c1O)-c1c(O)c(OC)cc3c1[C@H](C2)[N+](C)(C)CC3` [Compound 5, magnoflorine] in this work.
